Measured values as given in patent US6461997B1, “Triazole sulfones having herbicidal activity” (Monsanto Technology LLC, priority 1999, dated 2002).

Experiments:
SETFA (giant foxtail) = test: Pre-plant incorporated (PPI) herbicidal activity, warm season; format: in vivo, Setaria faberi; conditions: for inhibition at 10 g/ha / inhibition at 30 g/ha / inhibition at 100 g/ha / inhibition at 300 g/ha / inhibition at 900 g/ha: Setaria faberi, PPI application, read-out: Percent inhibition SETFA; for PPI activity GR80, SETFA: pre-plant incorporated, lowest tested rate with 80% or greater inhibition, about 14 days
In short: (§1)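 Seeds sown on compacted topsoil were covered with soil into which test compound (organic solvent solution/suspension) had been sprayed and mixed; untreated cover soil for controls. Greenhouse, 0.64 cm overhead irrigation; warm season 30/21° C, cool season 18/13° C day/night. Percent inhibition versus untreated scored ~14 days after treatment.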

SORVU (shattercane) = test: as above; format: in vivo, Sorghum vulgare; conditions: for inhibition at 10 g/ha / inhibition at 30 g/ha / inhibition at 100 g/ha / inhibition at 300 g/ha / inhibition at 900 g/ha: Sorghum bicolor, PPI application, read-out: Percent inhibition SORVU; for PPI activity GR80, SORVU: pre-plant incorporated, lowest tested rate with 80% or greater inhibition, about 14 days
In short: as §1

[1] = tested on: BRAPP (broadleaf signalgrass); test: as above; format: in vivo, Brachiaria platyphylla; conditions: for inhibition at 10 g/ha / inhibition at 30 g/ha / inhibition at 100 g/ha / inhibition at 300 g/ha / inhibition at 900 g/ha: Urochloa platyphylla, PPI application, read-out: Percent inhibition BRAPP; for PPI activity GR80, BRAPP: pre-plant incorporated, lowest tested rate with 80% or greater inhibition, about 14 days
In short: as §1

[2] = tested on: GALAP (catchweed bedstraw); test: Pre-plant incorporated (PPI) herbicidal activity, cool season; format: in vivo, Galium aparine; conditions: for inhibition at 10 g/ha / inhibition at 30 g/ha / inhibition at 100 g/ha / inhibition at 300 g/ha / inhibition at 900 g/ha: Galium aparine, weed, PPI application, read-out: Percent inhibition GALAP; for PPI activity GR80, GALAP: pre-plant incorporated, lowest tested rate with 80% or greater inhibition, about 14 days
In short: as §1

SINAR (wild mustard) = test: as above; format: in vivo, Sinapis arvensis; conditions: for inhibition at 10 g/ha / inhibition at 30 g/ha / inhibition at 100 g/ha / inhibition at 300 g/ha / inhibition at 900 g/ha: Brassica, weed, PPI application, read-out: Percent inhibition SINAR; for PPI activity GR80, SINAR: pre-plant incorporated, lowest tested rate with 80% or greater inhibition, about 14 days
In short: as §1

SASKR (russian thistle) = test: as above; format: in vivo, Salsola kali; conditions: for inhibition at 10 g/ha / inhibition at 30 g/ha / inhibition at 100 g/ha / inhibition at 300 g/ha / inhibition at 900 g/ha: Salsola kali, weed, PPI application, read-out: Percent inhibition SASKR; for PPI activity GR80, SASKR: pre-plant incorporated, lowest tested rate with 80% or greater inhibition, about 14 days
In short: as §1

STEME (common chickweed) = test: as above; format: in vivo, Stellaria media; conditions: pre-plant incorporated; lowest tested rate with 80% or greater inhibition; about 14 days
In short: as §1

[3] = tested on: LAMPU (purple deadnettle); test: as above; format: in vivo, Lamium purpureum; conditions: for PPI activity GR80, LAMPU: pre-plant incorporated, lowest tested rate with 80% or greater inhibition, about 14 days
In short: as §1

SETVI (green foxtail) = test: as above; format: in vivo, Setaria viridis; conditions: for inhibition at 10 g/ha / inhibition at 30 g/ha / inhibition at 100 g/ha / inhibition at 300 g/ha / inhibition at 900 g/ha: Setaria viridis, weed, PPI application, read-out: Percent inhibition SETVI; for PPI activity GR80, SETVI: pre-plant incorporated, lowest tested rate with 80% or greater inhibition, about 14 days
In short: as §1

[4] = tested on: AGRRE (quackgrass (seedling)); test: as above; format: in vivo, Elymus repens; conditions: for inhibition at 10 g/ha / inhibition at 30 g/ha / inhibition at 100 g/ha / inhibition at 300 g/ha / inhibition at 900 g/ha: Elymus repens, weed, PPI application, read-out: Percent inhibition AGRRE; for PPI activity GR80, AGRRE: pre-plant incorporated, lowest tested rate with 80% or greater inhibition, about 14 days
In short: as §1

corn (ZEAMX) = test: Selectivity test, PPI, warm season crop; format: in vivo, Zea mays; conditions: Zea mays, PPI application, read-out: Percent inhibition ZEAMX
In short: (§2)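 Pre-plant incorporated: compound in organic solvent sprayed onto cover soil, mixed and laid over seeds; untreated soil for controls. Greenhouse after treatment: warm season 30/21° C., cool season 18/13° C. day/night. Percent inhibition versus untreated plants scored about 14 days after planting.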

wheat (TRZAW) = test: Selectivity test, PPI, cool season crop; format: in vivo, Triticum aestivum; conditions: Triticum aestivum, PPI application, read-out: Percent inhibition TRZAW
In short: as §2

barley (HORVX) = test: Selectivity test, PPI, cool season crop; format: in vivo, Hordeunm vulgare; conditions: Hordeum vulgare, PPI application, read-out: Percent inhibition HORVX
In short: as §2

[5] = Lamium purpureum, weed, PPI application, read-out: Percent inhibition LAMPU

## C=CCC(F)(F)S(=O)(=O)c1ncn(C(=O)N(CC)CC)n1 [Example 17, 1-(N,N-diethylcarbamoyl)-3-[(1,1-difluoro-3-butenyl)sulfonyl]-1,2,4-triazole]
SETFA (giant foxtail)
  inhibition at 10 g/ha: 100%
  inhibition at 30 g/ha: 100%
  inhibition at 100 g/ha: 100%
  inhibition at 300 g/ha: 100%
  inhibition at 900 g/ha: 100%
  PPI activity GR80, SETFA: 10 g/ha
SORVU (shattercane)
  inhibition at 10 g/ha: 20%
  inhibition at 30 g/ha: 70%
  inhibition at 100 g/ha: 100%
  inhibition at 300 g/ha: 100%
  inhibition at 900 g/ha: 100%
  PPI activity GR80, SORVU: * (activity observed, at least at highest rate, but <80% inhibition)
[1]
  inhibition at 10 g/ha: 0%
  inhibition at 30 g/ha: 0%
  inhibition at 100 g/ha: 50%
  inhibition at 300 g/ha: 100%
  inhibition at 900 g/ha: 100%
  PPI activity GR80, BRAPP: 100 g/ha
[2]
  inhibition at 10 g/ha: 0%
  inhibition at 30 g/ha: 60%
  inhibition at 100 g/ha: 40%
  inhibition at 300 g/ha: 80%
  inhibition at 900 g/ha: 100%
  PPI activity GR80, GALAP: 100 g/ha
SINAR (wild mustard)
  inhibition at 10 g/ha: 70%
  inhibition at 30 g/ha: 70%
  inhibition at 100 g/ha: 90%
  inhibition at 300 g/ha: 100%
  inhibition at 900 g/ha: 100%
  PPI activity GR80, SINAR: 30 g/ha
SASKR (russian thistle)
  inhibition at 10 g/ha: 0%
  inhibition at 30 g/ha: 0%
  inhibition at 100 g/ha: 0%
  inhibition at 300 g/ha: 60%
  inhibition at 900 g/ha: 100%
  PPI activity GR80, SASKR: 30 g/ha
STEME (common chickweed)
  PPI activity GR80, STEME: 10 g/ha
[3]; [5]
  inhibition at 10 g/ha: 100%
  inhibition at 30 g/ha: 100%
  inhibition at 300 g/ha: 100%
  inhibition at 900 g/ha: 100%
[3]; Lamium purpureum, weed, PPI application, 100 g/ha, read-out: Percent inhibition LAMPU
  inhibition at 100 g/ha: 100%
[3]
  PPI activity GR80, LAMPU: 30 g/ha
SETVI (green foxtail)
  inhibition at 10 g/ha: 40%
  inhibition at 30 g/ha: 70%
  inhibition at 100 g/ha: 70%
  inhibition at 300 g/ha: 100%
  inhibition at 900 g/ha: 100%
  PPI activity GR80, SETVI: 30 g/ha
[4]
  inhibition at 10 g/ha: 0%
  inhibition at 30 g/ha: 40%
  inhibition at 100 g/ha: 50%
  inhibition at 300 g/ha: 60%
  inhibition at 900 g/ha: 70%
  PPI activity GR80, AGRRE: 100 g/ha
Corn (ZEAMX)
  inhibition at 10 g/ha: 0%
  inhibition at 30 g/ha: 0%
  inhibition at 100 g/ha: 20%
  inhibition at 300 g/ha: 30%
  inhibition at 900 g/ha: 95%
Wheat (TRZAW)
  inhibition at 10 g/ha: 0%
  inhibition at 30 g/ha: 0%
  inhibition at 100 g/ha: 10%
  inhibition at 300 g/ha: 30%
  inhibition at 900 g/ha: 60%
Barley (HORVX)
  inhibition at 10 g/ha: 0%
  inhibition at 30 g/ha: 0%
  inhibition at 100 g/ha: 10%
  inhibition at 300 g/ha: 30%
  inhibition at 900 g/ha: 60%

## C=C(C)CC(F)(F)S(=O)(=O)c1ncn(C(=O)N(CC)CC)n1 [Example 18]
SETFA (giant foxtail)
  inhibition at 10 g/ha: 100%
  inhibition at 30 g/ha: 90%
  inhibition at 100 g/ha: 90%
  inhibition at 300 g/ha: 100%
  inhibition at 900 g/ha: 100%
  PPI activity GR80, SETFA: 100 g/ha
SORVU (shattercane)
  inhibition at 10 g/ha: 20%
  inhibition at 30 g/ha: 50%
  inhibition at 100 g/ha: 50%
  inhibition at 300 g/ha: 100%
  inhibition at 900 g/ha: 100%
  PPI activity GR80, SORVU: 100 g/ha
[1]
  inhibition at 10 g/ha: 0%
  inhibition at 30 g/ha: 0%
  inhibition at 100 g/ha: 0%
  inhibition at 300 g/ha: 100%
  inhibition at 900 g/ha: 100%
  PPI activity GR80, BRAPP: 100 g/ha
[2]
  inhibition at 10 g/ha: 70%
  inhibition at 30 g/ha: 60%
  inhibition at 100 g/ha: 70%
  inhibition at 300 g/ha: 100%
  inhibition at 900 g/ha: 100%
  PPI activity GR80, GALAP: 100 g/ha
SINAR (wild mustard)
  inhibition at 10 g/ha: 100%
  inhibition at 30 g/ha: 100%
  inhibition at 100 g/ha: 80%
  inhibition at 300 g/ha: 100%
  inhibition at 900 g/ha: 100%
  PPI activity GR80, SINAR: 10 g/ha
SASKR (russian thistle)
  inhibition at 10 g/ha: 0%
  inhibition at 30 g/ha: 0%
  inhibition at 100 g/ha: 80%
  inhibition at 300 g/ha: 80%
  inhibition at 900 g/ha: 100%
  PPI activity GR80, SASKR: 30 g/ha
STEME (common chickweed)
  PPI activity GR80, STEME: 100 g/ha
[3]; [5]
  inhibition at 10 g/ha: 0%
  inhibition at 30 g/ha: 0%
  inhibition at 300 g/ha: 0%
  inhibition at 900 g/ha: 70%
[3]
  PPI activity GR80, LAMPU: 10 g/ha
SETVI (green foxtail)
  inhibition at 10 g/ha: 100%
  inhibition at 30 g/ha: 100%
  inhibition at 100 g/ha: 100%
  inhibition at 300 g/ha: 60%
  inhibition at 900 g/ha: 100%
  PPI activity GR80, SETVI: 30 g/ha
[4]
  inhibition at 10 g/ha: 0%
  inhibition at 30 g/ha: 30%
  inhibition at 100 g/ha: 20%
  inhibition at 300 g/ha: 20%
  inhibition at 900 g/ha: 80%
  PPI activity GR80, AGRRE: 100 g/ha
Corn (ZEAMX)
  inhibition at 10 g/ha: 0%
  inhibition at 30 g/ha: 0%
  inhibition at 100 g/ha: 10%
  inhibition at 300 g/ha: 15%
  inhibition at 900 g/ha: 20%
Wheat (TRZAW)
  inhibition at 10 g/ha: 0%
  inhibition at 30 g/ha: 0%
  inhibition at 100 g/ha: 0%
  inhibition at 300 g/ha: 30%
  inhibition at 900 g/ha: 60%
Barley (HORVX)
  inhibition at 10 g/ha: 0%
  inhibition at 30 g/ha: 0%
  inhibition at 100 g/ha: 0%
  inhibition at 300 g/ha: 10%
  inhibition at 900 g/ha: 60%
